In patent US20250236596A1, “HYDROXYLAMINE-BASED EGFR INHIBITORS FOR TREATMENT OF CANCER WITH BRAIN METASTASES” (University of Georgia Research Foundation, Inc., priority 2022, published 2025):

Key:
[1] = tested on: 468-member human kinase panel; experiment: KINOMEScan kinase selectivity panel, S score; format: binding; details: 1 μM; 6/403 nonmutant kinases
Description: Percent control was mapped onto the kinome tree using TREEspot™.

[2] = molecular target: T1, hERG channel (Homo sapiens, UniProt Q12809); experiment: hERG channel inhibition, manual patch clamp; format: cell-based
T1 construct: assay at Pharmaron Inc; host or cells: HEK293
Description: The potential inhibitory effect of compounds on the hERG channel was assessed by Pharmaron Inc. using the manual patch clamp system as previously described.^20 The HEK293 cell line (Invitrogen) stably transfected with the hERG gene was employed. Compounds were tested at 5 concentrations (0.37, 1.11, 3.33, 10 and 30 μM) and run in triplicate (n=3). IC50 values were determined by plotting the % inhibition against the concentration of compounds using GraphPad Prism from the non-linear regression equation fitted with a sigmoidal dose-response curve, and the IC50 values are presented as the mean±SEM.

[3] = molecular target: CYP1A2 (Homo sapiens, UniProt P05177); experiment: Human CYP450 inhibition in human liver microsomes, CYP1A2; format: in vitro ADME; details: pooled human liver microsomes, probe phenacetin (40 μM), O-demethylation
Description: Assessment of compound 15 was carried out at Pharmaron Inc. for its potential to inhibit cytochrome P450 (CYP) isoforms using human liver microsomes. The activities tested were CYP1A2-mediated phenacetin O-demethylation, CYP2C19-mediated (S)-mephenytoin 4′-hydroxylation, CYP2C9-mediated diclofenac 4′-hydroxylation, CYP2D6-mediated dextromethorphan O-demethylation and CYP3A4-mediated midazolam 1′-hydroxylation. Concentrations of substrates were phenacetin (40 μM), mephenytoin (50 μM), diclofenac (6 μM), dextromethorphan (2 μM) and midazolam (1 μM). Probe substrates phenacetin, mephenytoin and dextromethorphan were incubated at 37° for 20 min. Probe substrates diclofenac and midazolam were incubated at 37° for 5 min. […] The reactions were initiated by adding NADPH (1 mM final concentration) after a 5 min-preincubation and the assay was ran in duplicate (n=2). Samples were analyzed by UPLC-MS/MS.

T1 sequence (Q12809 whole entry): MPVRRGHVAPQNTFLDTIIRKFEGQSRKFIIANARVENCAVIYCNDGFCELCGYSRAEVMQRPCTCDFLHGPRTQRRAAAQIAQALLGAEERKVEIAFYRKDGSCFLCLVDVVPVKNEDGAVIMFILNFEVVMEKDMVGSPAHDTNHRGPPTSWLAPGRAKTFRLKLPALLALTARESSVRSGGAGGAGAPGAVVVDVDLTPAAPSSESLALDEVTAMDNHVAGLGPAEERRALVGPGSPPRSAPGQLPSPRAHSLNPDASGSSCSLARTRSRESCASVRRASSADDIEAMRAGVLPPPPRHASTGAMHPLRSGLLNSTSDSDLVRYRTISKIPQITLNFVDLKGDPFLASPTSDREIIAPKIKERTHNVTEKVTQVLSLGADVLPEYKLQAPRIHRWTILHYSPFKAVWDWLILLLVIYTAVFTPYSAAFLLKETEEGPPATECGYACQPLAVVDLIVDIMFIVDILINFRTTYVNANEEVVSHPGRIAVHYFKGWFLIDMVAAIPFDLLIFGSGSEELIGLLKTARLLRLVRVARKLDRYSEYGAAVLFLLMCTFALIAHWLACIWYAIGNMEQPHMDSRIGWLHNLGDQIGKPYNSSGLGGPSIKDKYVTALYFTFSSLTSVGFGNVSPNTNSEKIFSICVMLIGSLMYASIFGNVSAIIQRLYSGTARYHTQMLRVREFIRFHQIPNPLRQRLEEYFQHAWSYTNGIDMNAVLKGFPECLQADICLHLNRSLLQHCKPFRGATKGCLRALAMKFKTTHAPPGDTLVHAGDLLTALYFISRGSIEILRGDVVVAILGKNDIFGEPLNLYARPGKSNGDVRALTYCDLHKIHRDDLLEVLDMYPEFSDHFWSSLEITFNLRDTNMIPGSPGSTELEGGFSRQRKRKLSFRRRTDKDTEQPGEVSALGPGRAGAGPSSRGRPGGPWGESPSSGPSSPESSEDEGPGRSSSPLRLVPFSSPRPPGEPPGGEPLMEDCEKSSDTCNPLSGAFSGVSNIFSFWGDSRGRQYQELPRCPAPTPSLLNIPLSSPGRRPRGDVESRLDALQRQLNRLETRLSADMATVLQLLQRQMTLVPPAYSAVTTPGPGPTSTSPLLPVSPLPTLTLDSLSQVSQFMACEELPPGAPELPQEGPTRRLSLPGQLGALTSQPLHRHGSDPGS
Sequence of CYP1A2 (P05177 whole entry, canonical isoform): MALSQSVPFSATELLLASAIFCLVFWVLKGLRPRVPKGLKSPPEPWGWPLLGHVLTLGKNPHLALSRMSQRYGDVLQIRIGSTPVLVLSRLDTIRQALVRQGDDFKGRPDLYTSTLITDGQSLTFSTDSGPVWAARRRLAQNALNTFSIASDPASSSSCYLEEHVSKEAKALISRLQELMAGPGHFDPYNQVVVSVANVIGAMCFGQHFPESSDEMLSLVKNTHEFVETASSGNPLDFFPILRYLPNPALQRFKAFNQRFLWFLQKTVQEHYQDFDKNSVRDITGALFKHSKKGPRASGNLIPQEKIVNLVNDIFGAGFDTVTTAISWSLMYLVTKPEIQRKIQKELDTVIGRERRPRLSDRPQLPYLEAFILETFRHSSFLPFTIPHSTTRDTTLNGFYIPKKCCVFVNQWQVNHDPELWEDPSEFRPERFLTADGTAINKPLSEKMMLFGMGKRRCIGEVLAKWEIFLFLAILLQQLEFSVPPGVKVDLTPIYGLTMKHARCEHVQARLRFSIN

COc1cc2ncnc(Nc3cccc(Cl)c3F)c2cc1OCCON1CCN(C)CC1 [Compound 15, N-(3-chloro-2-fluorophenyl)-7-methoxy-6-(2-((4-methylpiperazin-1-yl)oxy)ethoxy)quinazolin-4-amine]
S(10) score [1]: 0.015
IC50 ([2]; HEK293 cells transfected with hERG, patch clamp): 6.48 µM
hERG maximal inhibition ([2]; at 10 μM): approximately 60%
IC50 at 20 min [3]: > 30 µM
